Measurements taken from US10472347B2, “Aminopyrazine compounds with A2A antagonist properties” (Merck Sharp & Dohme Corp., priority 2014, dated 2019).

The compounds below were run against T1, human A2a receptor (Homo sapiens, UniProt P29274) (assay: A2a competition binding assay, Scintillation Proximity technology). Details: membranes from HEK293 cells expressing human A2a receptor; 0.5 nM tritiated ligand.
T1 construct: purchased Perkin-Elmer RBHA2AM400UA; host or cells: HEK293 cells (membranes)
Protocol: Binding affinities of compounds of the invention for the human A2a receptor were determined in a competition binding assay using Scintillation Proximity technology. Thus, […] from HEK293 cells expressing the human A2a receptor were incubated with a compound of the invention at concentrations ranging from 3000 nM to 0.15 nM in a reaction mixture containing also 0.5 nM of a tritiated form of 5-amino-7-[2-phenethyl]-2-(furan-2-yl)-7H-pyrazolo[4,3-e][1,2,4]triazolo[1,5-c]pyrimidine (the tritiated compound) and 100 μg of wheat germ agglutin-coated yttrium silicate SPA beads for one hour at room temperature with agitation. The beads were then allowed to settle to the bottom of the wells for 1 hr, after which the membrane-associated radioactivity was determined by scintillation counting in a TopCount microplate reader. Ki values were determined using the Cheng-Prusoff equation.
HEK293 cells expressing the human, rat, dog or monkey adenosine 2a receptor (Purchased from Perkin-Elmer # RBHA2AM400UA).
The Tritiated compound was prepared in-house by MRL Radiochemistry according to published methods.
Wheat germ agglutinin-coated yttrium silicate SPA beads (GE Healthcare #RPNQ0023). Dilute to 25 mg/ml in assay buffer.
Assay Buffer was prepared in house: Dulbecco's calcium and magnesium free phosphate buffered saline+10 mM MgCl2
Adenosine deaminase from calf intestine, 10 mg/2 ml (Roche #10 102 105 001).
A2a antagonist standard (9-chloro-1-(2-furanyl)-[1,2,4]triazolo1,5-c]quinazolin-5-amine from Tocris Bioscience)
Make eight 1:3 serial dilutions in 100% DMSO from a 3 mM compound stock
Transfer 50 nl of compound into a 384-well OptiPlate (Perkin Elmer).
Typically, final concentrations of compound used in the assay ranged from 3000 nM to 0.152 nM.
Dilute a solution of the Tritiated compound to 1.25 nM in assay buffer. This is a 2.5× solution. The final concentration in the assay is 0.5 nM. Calculate the concentration by counting two 5 μl aliquots.
Use 0.25 ug of membrane/well. Dilute membranes to 9.7 μg/ml in assay buffer. Treat with 20 ug/ml adenosine deaminase (ADA) for 15 minutes at room temperature to degrade endogenous adenosine.
Use 100 μg/well wheat germ agglutinin-coated yttrium silicate SPA beads.
Mix ADA-treated membranes and SPA beads together for 30 min prior to assay.
To the Perkin-Elmer Optiplate-384 containing the compound titration add 20 μl of 2.5× solution of the Tritiated compound and 30 μl of the membrane-bead mixture. Incubate for one hour at room temperature with agitation.
Include total binding (assay buffer+1% DMSO) and non-specific binding (CGS15943, 1 μM) wells.
Allow the beads to settle for one hour.
A curve fitting program (i.e., Prism, Activity Base, Chemcart) is used to determine the EC50. The Ki value is calculated using the Cheng-Prusoff equation. Ki=EC50/(1+(radioligand concentration/Kd))

T1 sequence (P29274 whole entry): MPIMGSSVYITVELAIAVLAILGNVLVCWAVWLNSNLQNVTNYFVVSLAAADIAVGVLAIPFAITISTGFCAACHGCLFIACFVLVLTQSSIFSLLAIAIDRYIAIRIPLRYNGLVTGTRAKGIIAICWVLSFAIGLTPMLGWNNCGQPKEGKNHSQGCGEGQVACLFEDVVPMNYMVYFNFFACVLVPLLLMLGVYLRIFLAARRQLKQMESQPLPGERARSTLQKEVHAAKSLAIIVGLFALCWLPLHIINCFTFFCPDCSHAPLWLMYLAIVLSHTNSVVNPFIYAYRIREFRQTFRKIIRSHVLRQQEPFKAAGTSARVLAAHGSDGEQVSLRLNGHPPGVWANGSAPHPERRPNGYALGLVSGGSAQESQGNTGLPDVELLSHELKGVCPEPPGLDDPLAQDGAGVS

EC50 [nM] | SMILES
4 | Cc1nc(C(=O)N[C@@H]2CCc3cccnc32)c(N)nc1-c1ncco1 (single isomer, unassigned) [Ex-1A]
2.9 | Cc1nc(C(=O)N[C@H]2CCc3cccnc32)c(N)nc1-c1ncco1 (single isomer, unassigned) [Ex-1B]

Same assay, conditions: membranes from HEK293 cells expressing human A2a receptor; Ki by Cheng-Prusoff equation

SMILES | Ki [nM]
Cc1nc(C(=O)NC(C)c2ccccn2)c(N)nc1-c1ncco1 (single isomer, unassigned) [Ex-82A, 3-amino-6-methyl-5-(1,3-oxazol-2-yl)-N-(1-pyridin-2-ylethyl)pyrazine-2-carboxamide] | 2.48
Cc1nc(C(=O)NC(C)c2ccccn2)c(N)nc1-c1ncco1 (single isomer, unassigned) [Ex-82B, 3-amino-6-methyl-5-(1,3-oxazol-2-yl)-N-(1-pyridin-2-ylethyl)pyrazine-2-carboxamide] | 43.5
Cc1nc(C(=O)NC2CCCc3cnccc32)c(N)nc1-c1ncco1 (single isomer, unassigned) [Ex-84A, 3-amino-6-methyl-5-(1,3-oxazol-2-yl)-N-(5,6,7,8-tetrahydroisoquinolin-5-yl)pyrazine-2-carboxamide] | 280
Cc1nc(C(=O)NC2CCCc3cnccc32)c(N)nc1-c1ncco1 (single isomer, unassigned) [Ex-84B, 3-amino-6-methyl-5-(1,3-oxazol-2-yl)-N-(5,6,7,8-tetrahydroisoquinolin-5-yl)pyrazine-2-carboxamide] | 245
CCC(NC(=O)c1nc(C)c(-c2ncco2)nc1N)c1ccccn1 (single isomer, unassigned) [Ex-94A, 3-amino-6-methyl-5-(1,3-oxazol-2-yl)-N-(1-pyridin-2-ylpropyl)pyrazine-2-carboxamide] | 8.7
CCC(NC(=O)c1nc(C)c(-c2ncco2)nc1N)c1ccccn1 (single isomer, unassigned) [Ex-94B, 3-amino-6-methyl-5-(1,3-oxazol-2-yl)-N-(1-pyridin-2-ylpropyl)pyrazine-2-carboxamide] | 138
Cc1nc(C(=O)NC2CCCC(O)CC2)c(N)nc1-c1ncco1 (single isomer, unassigned) [Ex-165A, 3-amino-N-(4-hydroxycycloheptyl)-6-methyl-5-(1,3-oxazol-2-yl)pyrazine-2-carboxamide] | 13.1
Cc1nc(C(=O)NC2CCCC(O)CC2)c(N)nc1-c1ncco1 (single isomer, unassigned) [Ex-165B, 3-amino-N-(4-hydroxycycloheptyl)-6-methyl-5-(1,3-oxazol-2-yl)pyrazine-2-carboxamide] | 2.12
Cc1nc(C(=O)NC2CCCC(O)CC2)c(N)nc1-c1ncco1 (single isomer, unassigned) [Ex-165C, 3-amino-N-(4-hydroxycycloheptyl)-6-methyl-5-(1,3-oxazol-2-yl)pyrazine-2-carboxamide] | 7.64
Cc1nc(C(=O)NC2CCOc3ccccc32)c(N)nc1-c1ncco1 (stereo in doubt) [Ex-145, 3-amino-N-[(4R)-3,4-dihydro-2H-chromen-44-yl]-6-methyl-5-(1,3-oxazol-2-yl)pyrazine-2-carboxamide] | 4.22
Cc1nc(C(=O)NC2CCOc3ccccc32)c(N)nc1-c1ncco1 (stereo in doubt) [Ex-146, 3-amino-N-[(4S)-3,4-dihydro-2H-chromen-4-yl]-6-methyl-5-(1,3-oxazol-2-yl)pyrazine-2-carboxamide] | 5.57

The next lines start with the values.

Ki [nM] | SMILES
9.34 | Cc1nc(C(=O)NC2CCCC(O)CC2)c(N)nc1-c1ncco1 (single isomer, unassigned) [Ex-165D, 3-amino-N-(4-hydroxycycloheptyl)-6-methyl-5-(1,3-oxazol-2-yl)pyrazine-2-carboxamide]
1.33 | Cc1nc(C(=O)NC2CCCC2(F)F)c(N)nc1-c1ncco1 (single isomer, unassigned) [Ex-191A, 3-amino-N-(2,2-difluorocyclopentyl)-6-methyl-5-(1,3-oxazol-2-yl)pyrazine-2-carboxamide]
2.56 | Cc1nc(C(=O)NC2CCCC2(F)F)c(N)nc1-c1ncco1 (single isomer, unassigned) [Ex-191B, 3-amino-N-(2,2-difluorocyclopentyl)-6-methyl-5-(1,3-oxazol-2-yl)pyrazine-2-carboxamide]
3.74 | Cc1nc(C(=O)NC2CCCc3cccnc32)c(N)nc1-c1ncco1 (single isomer, unassigned) [Ex-230A, 3-amino-6-methyl-5-(1,3-oxazol-2-yl)-N-(5,6,7,8-tetrahydroquinolin-8-yl)pyrazine-2-carboxamide]
0.762 | Cc1nc(C(=O)NC2CCCc3cccnc32)c(N)nc1-c1ncco1 (single isomer, unassigned) [Ex-230B, 3-amino-6-methyl-5-(1,3-oxazol-2-yl)-N-(5,6,7,8-tetrahydroquinolin-8-yl)pyrazine-2-carboxamide]
29.2 | COc1ccc2c(c1)CCC2NC(=O)c1nc(C)c(-c2ncco2)nc1N (single isomer, unassigned) [Ex-231A, 3-amino-N-(5-methoxy-2,3-dihydro-1H-inden-1-yl)-6-methyl-5-(1,3-oxazol-2-yl)pyrazine-2-carrboxamide]
10.5 | COc1ccc2c(c1)CCC2NC(=O)c1nc(C)c(-c2ncco2)nc1N (single isomer, unassigned) [Ex-231B, 3-amino-N-(5-methoxy-2,3-dihydro-1H-inden-1-yl)-6-methyl-5-(1,3-oxazol-2-yl)pyrazine-2-carboxamide]
1.15 | Cc1nc(C(=O)NC2CCc3ccccc3C2)c(N)nc1-c1ncco1 (single isomer, unassigned) [Ex-233A, 3-amino-6-methyl-5-(1,3-oxazol-2-yl)-N-(1,2,3,4-tetrahydronaphthalen-2-yl)pyrazine-2-carboxamide]
0.572 | Cc1nc(C(=O)NC2CCc3ccccc3C2)c(N)nc1-c1ncco1 (single isomer, unassigned) [Ex-233B, 3-amino-6-methyl-5-(1,3-oxazol-2-yl)-N-(1,2,3,4-tetrahydronaphthalen-2-yl)pyrazine-2-carboxamide]
5.51 | Cc1nc(C(=O)NC2c3ncccc3CC2O)c(N)nc1-c1ncco1 (single isomer, unassigned) [Ex-238A, 3-amino-N-(6-hydroxy-6,7-dihydro-5H-cyclopenta[b]pyridin-7-yl)-6-methyl-5-(1,3-oxazol-2-yl)pyrazine-2-carboxamide]
0.94 | Cc1nc(C(=O)NC2c3ncccc3CC2O)c(N)nc1-c1ncco1 (single isomer, unassigned) [Ex-238B, 3-amino-N-(6-hydroxy-6,7-dihydro-5H-cyclopenta[b]pyridin-7-yl)-6-methyl-5-(1,3-oxazol-2-yl)pyrazine-2-carboxamide]
0.22 | Cc1nc(C(=O)NC2CCc3c(Cl)ccnc32)c(N)nc1-c1ncco1 (single isomer, unassigned) [Ex-244A, 3-amino-N-(4-chloro-6,7-dihydro-5H-cyclopenta[b]pyridin-7-yl)-6-methyl-5-(1,3-oxazol-2-yl)pyrazine-2-carboxamide]
1.28 | Cc1nc(C(=O)NC2CCc3c(Cl)ccnc32)c(N)nc1-c1ncco1 (single isomer, unassigned) [Ex-244B, 3-amino-N-(4-chloro-6,7-dihydro-5H-cyclopenta[b]pyridin-7-yl)-6-methyl-5-(1,3-oxazol-2-yl)pyrazine-2-carboxamide]
6.69 | Cc1nc(C(=O)NC2CCc3ccc(Cl)nc32)c(N)nc1-c1ncco1 (single isomer, unassigned) [Ex-245A, 3-amino-N-(2-chloro-6,7-dihydro-5H-cyclopenta[b]pyridin-7-yl)-6-methyl-5-(1,3-oxazol-2-yl)pyrazine-2-carboxamide]
4.39 | Cc1nc(C(=O)NC2CCc3ccc(Cl)nc32)c(N)nc1-c1ncco1 (single isomer, unassigned) [Ex-245B, 3-amino-N-(2-chloro-6,7-dihydro-5H-cyclopenta[b]pyridin-7-yl)-6-methyl-5-(1,3-oxazol-2-yl)pyrazine-2-carboxamide]
1.03 | COC[C@H]1CCC[C@H]1NC(=O)c1nc(C)c(-c2ncco2)nc1N (stereo in doubt) [Ex-171, 3-amino-N-[(1R,2S)-2-(methoxymethyl)cyclopentyl]-6-methyl-5-(1,3-oxazol-2-yl)pyrazine-2-carboxamide]
